pIC50: −log10 of the molar value.
Tests used:
Format in all cases: cell-based
PTGER2 (EP2) = molecular target: T1, PTGER2 (EP2) (Homo sapiens, UniProt P43116); test: hEP2 b-Arrestin Assay (PathHunter HEK 293 PTGER2 b-arrestin cells, PGE2 5 μM); conditions: antagonistic activity, beta-arrestin assay, HEK 293 PTGER2 cells, PGE2 5 μM (EC80); read-out: hEP2 b-arr IC50
T1 construct: host or cells: HEK 293 (PathHunter, stably transfected)
Description: (§1) The antagonistic activities of the compounds of formula (I) on the EP2 and EP4 receptors are also determined in accordance with the following experimental method.
The assay is using the PathHunter™ HEK 293 PTGER2 and PTGER4 b-arrestin cell lines from DiscoverX. The system is based on the Enzyme Fragment Complementation Technology. Two complementing fragments of the b-galactosidase enzyme are expressed within stably transfected cells. The larger portion of b-gal, termed EA for Enzyme Acceptor, is fused to the C-terminus of b-arrestin 2. The smaller fragment, termed ProLink™ tag, is fused to PTGER2 (EP2) or PTRGER4 (EP4) at the C-terminus. Upon activation, b-arrestin is recruited which forces the interaction of ProLink and EA, allowing complementation of the two fragments of b-gal and the formation of a functional enzyme which is capable of hydrolysing the substrate and generating a chemiluminescent signal.
The HEK 293 PTGER2 b-arrestin cells (DiscoverX 93-021-4C1) are detached from culture dishes with a cell dissociation buffer (Invitrogen, 13151-014), and collected in growing medium (GM: DMEM+Glutamax-I (Invitrogen 32430)/10% FCS, 1% Penicilin/streptomycin). 5000 cells per well of a 384 well plate (white with white bottom Greiner 781080) are seeded in 20 μl per well of GM. Plate is incubated at 37° C., 5% CO2 for 24 hours.
Stock solutions of test compounds are made at a concentration of 10 mM in DMSO, and serially diluted in DMSO to concentrations required for inhibition dose response curves (tested concentration range 10 μM-2 nM or 1 μM-0.2 nM).
PGE2 (Cayman 14010, stock solution: 10 mM in DMSO) is used as agonist at 5 μM final concentration, corresponding to EC80.
Five microliters of diluted compounds are transferred into the assay plate. Plate is pre-incubated 15 minutes at 37° C. Then five microliters of PGE2 (final conc. 5 μM) are transferred into the assay plate. Plate is incubated 120 minutes at 37° C.
PathHunter Glo Detection Kit components are thawed and mix according to manufacturer's instructions: 1 part Galacton Star Substrate with 5 parts Emerald II™ Solution, and 19 parts of PathHunter Cell Assay Buffer, respectively. Twelve μl of reagent are transferred to the assay plate and incubate for 1 hour at room temperature in the dark. Luminescence counts are read on a BMG Fluostar Optima reader according to manufacturer's instructions.
For each compound concentration calculate of the percentage of activity compared to DMSO control value as average ±STDEV. (each concentration is measured in duplicate)
(§2) IC50 values and curves are generated with XLfit software (IDBS) using Dose-Response One Site model 203. When compounds were measured multiple times, mean values are given.

EP2 = molecular target: T2, EP2 (Homo sapiens, UniProt P43116); test: hEP2 cAMP Assay (SF295 glioblastoma cells, HTRF cAMP, PGE2 75 nM); conditions: antagonistic activity, PGE2 75 nM (EC80)
T2 construct: SF295 glioblastoma cells express high endogenous EP2 and no EP4; host or cells: SF295 glioblastoma cells
T2 sequence (P43116 whole entry): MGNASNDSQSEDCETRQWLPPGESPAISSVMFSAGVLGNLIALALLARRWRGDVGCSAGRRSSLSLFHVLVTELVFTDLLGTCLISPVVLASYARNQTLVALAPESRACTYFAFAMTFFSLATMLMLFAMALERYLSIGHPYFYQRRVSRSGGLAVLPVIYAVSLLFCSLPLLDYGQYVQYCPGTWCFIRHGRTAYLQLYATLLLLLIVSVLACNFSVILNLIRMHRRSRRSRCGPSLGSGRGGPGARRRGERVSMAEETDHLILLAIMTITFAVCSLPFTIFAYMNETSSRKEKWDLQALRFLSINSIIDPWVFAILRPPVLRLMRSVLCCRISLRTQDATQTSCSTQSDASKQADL
Description: as §1
(§3) Human tumor cell lines expressing endogenously either EP4 or EP2 are used and cAMP accumulation in cells upon PGE2 stimulation is monitored. SF295 glioblastoma cells express high endogenous EP2 and no EP4, whereas BT549 breast cancer cells, express high endogenous EP4 levels and very low EP2 levels.
(§4) As a detection method for cAMP the HTRF (homogeneous time resolved fluorescence) Cisbio kit (HTRF cAMP dynamic 2 kit 20′000 tests Cisbio Cat. #62AM4PEC) was used, which is based on a competitive immunoassay using a Cryptate-labeled anti-cAMP antibody and d2-labeled cAMP. Native cAMP produced by cells or unlabeled cAMP (for the standard curve) compete with exogenously added d2-labeled cAMP (acceptor) for binding to monoclonal anti-cAMP-Eu3+Cryptate (donor). A FRET signal (Fluorescence Resonance Energy Transfer) is obtained only if the labeled anti-cAMP antibody binds the d2 labelled cAMP, thus the specific signal (i.e. energy transfer) is inversely proportional to the concentration of cAMP in the standard or sample.
(§5) The SF295 cells (NCI/No. 0503170) are detached from culture dishes with a cell dissociation buffer (Invitrogen, 13151-014), and collected in growing medium (GM: RPM11640 (Invitrogen 21875)/10% FCS, 1% Penicilin/streptomycin). Cells are counted washed and resuspended in assay buffer (AB; HBSS, 20 mM HEPES, 0.2% BSA; 2 mM IBMX). 4′000 cells in 5 μL of AB are seeded per well of a small volume 384 well plate (black with flat bottom, Greiner 784076).
(§6) Stock solutions of test compounds are made at a concentration of 10 mM in DMSO, and serially diluted in DMSO to concentrations required for inhibition dose response curves (tested concentration range 30 μM-0.4 nM; 30 μM-0.015 nM or 1 μM-0.01 nM).
PGE2 (Cayman 14010, stock solution: 75 μM in DMSO) is used as agonist at 75 nM final concentration, corresponding to EC80.
(§7) 2.5 μL of diluted compounds are transferred into the assay plate. Plate is pre-incubated 45 minutes at room temperature. Subsequently, 2.5 μL of PGE2 (final conc. 75 nM) are transferred into the assay plate. Plate is incubated 30 minutes at room temperature. Five μL of each donor (anti-cAMP cryptate) and acceptor (cAMP-d2) are added and the plate is incubated another hour at room temperature in the dark and then read using a BMG LABTECH PHERAstar reader (Excitation: 337 nm, Emission: 620 and 665 nm).
(§8) The obtained Delta F (fluorescence) values (665 nm/620 nM) are converted into % cAMP values using the measurements of the cAMP calibrator provided in the kit. For each compound concentration the percentage of cAMP compared to DMSO control value as average ±STDEV (each concentration is measured in duplicate) is calculated.
as §2

EP4 = molecular target: T3, EP4 (Homo sapiens, UniProt P35408); test: hEP4 cAMP Assay (BT549 breast cancer cells, HTRF cAMP, PGE2 6 nM); conditions: antagonistic activity, PGE2 6 nM (EC80)
T3 construct: BT549 breast cancer cells, express high endogenous EP4 levels and very low EP2 levels; host or cells: BT549 breast cancer cells
T3 sequence (P35408 whole entry): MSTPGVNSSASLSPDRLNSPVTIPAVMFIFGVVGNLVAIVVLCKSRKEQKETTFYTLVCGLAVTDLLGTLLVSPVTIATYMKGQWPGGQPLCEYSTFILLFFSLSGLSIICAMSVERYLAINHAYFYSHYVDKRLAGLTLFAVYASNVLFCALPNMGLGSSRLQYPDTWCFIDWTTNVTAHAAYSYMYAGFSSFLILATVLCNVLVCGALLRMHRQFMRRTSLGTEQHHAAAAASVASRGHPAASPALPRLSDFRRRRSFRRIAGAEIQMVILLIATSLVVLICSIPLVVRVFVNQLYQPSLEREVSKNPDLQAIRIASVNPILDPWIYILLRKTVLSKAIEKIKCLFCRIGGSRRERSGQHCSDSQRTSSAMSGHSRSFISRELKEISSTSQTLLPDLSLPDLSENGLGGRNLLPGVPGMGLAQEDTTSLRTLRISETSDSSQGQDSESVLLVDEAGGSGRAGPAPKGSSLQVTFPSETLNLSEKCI
Description: as §1, §3, §4
as §5, with “BT549” for “SF295”, “0507282)” for “0503170)”, “RPMI1640” for “RPM11640”
as §6
PGE2 (Cayman 14010, stock solution: 6 uM in DMSO) is used as agonist at 6 nM final concentration, corresponding to EC80.
as §7, with “6” for “75”, “5” for “Five”
as §8, §2

T1 sequence (P43116 whole entry): as the sequence (P43116 whole entry) above

Row | Compound | pIC50 (PTGER2 (EP2)) | pIC50 (EP2) | pIC50 (EP4)
1 | CCOc1cc(-c2cc(NCCc3c(F)ccc4ccccc34)ncn2)ccc1OCC(=O)O [Example 96, (2-Ethoxy-4-{6-[2-(2-fluoro-naphthalen-1-yl)-ethylamino]-pyrimidin-4-yl}-phenoxy)-acetic acid] | 7.18 | 6.74 | 6.37
2 | O=C(O)c1ccc(-c2cc(NCCc3ccc(F)c4ccccc34)ncn2)cc1OC1CCC1 [Example 20, 2-Cyclobutoxy-4-{6-[2-(4-fluoro-naphthalen-1-yl)-ethylamino]-pyrimidin-4-yl}-benzoic acid] | 7.14 | 6.70 | 6.17
3 | Cc1ccc(CCNc2cc(-c3ccc(C(=O)O)c(OC4CCC4)c3)ncn2)c2ccccc12 [Example 17, 2-Cyclobutoxy-4-{6-[2-(4-methyl-naphthalen-1-yl)-ethylamino]-pyrimidin-4-yl}-benzoic acid] | 7.02 | 6.55 | 6.57
4 | O=C(O)c1ccc(-c2cc(NCCc3cccc4ccsc34)ncn2)cc1OC1CCC1 [Example 102, 4-[6-(2-Benzo[b]thiophen-7-yl-ethylamino)-pyrimidin-4-yl]-2-cyclobutoxy-benzoic acid] | 6.84 | 6.65 | 6.58
5 | COc1ccc2ncccc2c1CCNc1cc(-c2ccc(C(=O)O)c(OC3CCC3)c2)ncn1 [Example 64, 2-Cyclobutoxy-4-{6-[2-(6-methoxy-quinolin-5-yl)-ethylamino]-pyrimidin-4-yl}-benzoic acid] | 6.97 | 7.10 | 6.06
6 | CCCCOc1cc(-c2cc(NCCc3c(OC)ccc4ccccc34)ncn2)cc(F)c1C(=O)O [Example 124, 2-Butoxy-6-fluoro-4-{6-[2-(2-methoxy-naphthalen-1-yl)-ethylamino]-pyrimidin-4-yl}-benzoic acid] | 7.46 | 7.00 | 6.35
7 | CCOc1cc(-c2cc(NCCc3c(F)ccc4ccccc34)ncn2)ccc1CC(=O)O [Example 97, (2-Ethoxy-4-{6-[2-(2-fluoro-naphthalen-1-yl)-ethylamino]-pyrimidin-4-yl}-phenyl)-acetic acid] | 6.88 | 6.66 | 6.45
8 | COc1ccc2ccccc2c1CCNc1cc(-c2cc3cc(C(=O)O)ccc3[nH]2)ncn1 [Example 130, 2-{6-[2-(2-Methoxy-naphthalen-1-yl)-ethylamino]-pyrimidin-4-yl}-1H-indole-5-carboxylic acid] | 7.89 | 7.57 | 6.26

More lines, now with the values ahead:

Row | pIC50 (PTGER2 (EP2)) | pIC50 (EP2) | pIC50 (EP4) | Compound
9 | 7.44 | 7.44 | 6.37 | CCOc1cc(-c2cc(NCCc3c(F)ccc4ccccc34)ncn2)ccc1C(=O)O [Example 93, 2-Ethoxy-4-{6-[2-(2-fluoro-naphthalen-1-yl)-ethylamino]-pyrimidin-4-yl}-benzoic acid]
10 | 6.75 | 7.11 | 6.17 | CCOc1cc(-c2cc(NCCc3c(C)ccc4cnccc34)ncn2)ccc1OCC(=O)O [Example 86, (2-Ethoxy-4-{6-[2-(6-methyl-isoquinolin-5-yl)-ethylamino]-pyrimidin-4-yl}-phenoxy)-acetic acid]
11 | 7.66 | 7.17 | 6.04 | CCOc1cc(-c2cc(NCCc3c(Br)ccc4ccccc34)ncn2)ccc1C(=O)O [Example 7, 4-{6-[2-(2-Bromo-naphthalen-1-yl)-ethylamino]-pyrimidin-4-yl}-2-ethoxy-benzoic acid]
12 | 7.30 | 6.77 | 6.07 | CCOc1cc(-c2cc(NCCc3c(C)ccc4c3cnn4C)ncn2)ccc1O [Example 111, 4-{6-[2-(1,5-Dimethyl-1H-indazol-4-yl)-ethylamino]-pyrimidin-4-yl}-2-ethoxy-phenol]
13 | 7.28 | 7.28 | 6.53 | CCOc1cc(-c2cc(NCCc3cccc4cc(C)n(C)c34)ncn2)sc1C(=O)O [Example 56, 5-{6-[2-(1,2-Dimethyl-1H-indol-7-yl)-ethylamino]-pyrimidin-4-yl}-3-ethoxy-thiophene-2-carboxylic acid]
14 | 7.44 | 7.24 | 6.45 | CCOc1cc(-c2cc(NCCc3c(OC)ccc4ncccc34)ncn2)ccc1O [Example 90, 2-Ethoxy-4-{6-[2-(6-methoxy-quinolin-5-yl)-ethylamino]-pyrimidin-4-yl}-phenol]
15 | 6.97 | 6.80 | 6.34 | CCOc1cc(-c2cc(NCCc3cccc4c3ccn4C)ncn2)ccc1OCC(=O)O [Example 49, (2-Ethoxy-4-{6-[2-(1-methyl-1H-indol-4-yl)-ethylamino]-pyrimidin-4-yl}-phenoxy)-acetic acid]
16 | 6.89 | 6.89 | 6.21 | CCOc1cc(-c2cc(NCCc3cccc4ccsc34)ncn2)ccc1C(=O)O [Example 101, 4-[6-(2-Benzo[b]thiophen-7-yl-ethylamino)-pyrimidin-4-yl]-2-ethoxy-benzoic acid]
17 | 7.18 | 6.92 | 6.39 | CCOc1cc(-c2cc(NCCc3c(OC)ccc4ncccc34)ncn2)sc1C(=N)NO [Example 146, 3-Ethoxy-N-hydroxy-5-{6-[2-(6-methoxy-quinolin-5-yl)-ethylamino]-pyrimidin-4-yl}-thiophene-2-carboxamidine]

— patent US11446298B2, “Pyrimidine derivatives” (Idorsia Pharmaceuticals Ltd, priority 2017, dated 2022)
